Laboratory results from ChEMBL document CHEMBL3885881, “DrugMatrix”.

Species on record: Rattus norvegicus
Experiment: DrugMatrix - Regimen: Daily Repeat
Format: toxicity, organism-based, Sprague-Dawley
Design: regimen Daily Repeat, gender Male, age 6-8 weeks
Details: in vivo, po, route oral GAVAGE, […]; for ABSOLUTE BASOPHIL / ABSOLUTE EOSINOPHIL / ABSOLUTE LYMPHOCYTE / ABSOLUTE MONOCYTE / ABSOLUTE SEGMENTED NEUTROPHIL / BASOPHIL / EOSINOPHIL / ERYTHROCYTE COUNT / HEMATOCRIT / HEMOGLOBIN / LEUKOCYTE COUNT / LYMPHOCYTE / MEAN CORPUSCULAR HEMOGLOBIN / MEAN CORPUSCULAR HEMOGLOBIN CONCENTRATION / MEAN CORPUSCULAR VOLUME / MONOCYTE / NEUTROPHIL / NUCLEATED RED BLOOD CELLS / PLATELET COUNT: tissue Blood; for ALANINE AMINOTRANSFERASE / ALBUMIN / ALKALINE PHOSPHATASE / ASPARTATE AMINOTRANSFERASE / BLOOD UREA NITROGEN / CARBON DIOXIDE / CHLORIDE / CHOLESTEROL / CREATINE PHOSPHOKINASE / CREATININE / GLUCOSE / LACTATE DEHYDROGENASE / LIPASE / PHOSPHORUS / POTASSIUM / SODIUM / TOTAL BILIRUBIN / TOTAL PROTEIN / URIC ACID: tissue Plasma
[1] = 0 mg/kg, 72 h, dose level Control, time 3 day
[2] = 0 mg/kg, 120 h, dose level Control, time 5 day
[3] = 15 mg/kg, 72 h, dose level Low, time 3 day
[4] = 15 mg/kg, 120 h, dose level Low, time 5 day

CC(C)C(=O)Nc1ccc([N+](=O)[O-])c(C(F)(F)F)c1 [FLUTAMIDE]
ABSOLUTE BASOPHIL [1]: 0 CELLS/uL
ABSOLUTE EOSINOPHIL [1]: 13.67 CELLS/uL
ABSOLUTE LYMPHOCYTE [1]: 10069.5 CELLS/uL
ABSOLUTE MONOCYTE [1]: 50 CELLS/uL
ABSOLUTE SEGMENTED NEUTROPHIL [1]: 516.83 CELLS/uL
BASOPHIL [1]: 0%
EOSINOPHIL [1]: 0.17%
ERYTHROCYTE COUNT [1]: 5.44 x10E6/uL
HEMATOCRIT [1]: 33.88%
HEMOGLOBIN [1]: 13.23 G/DL
LEUKOCYTE COUNT [1]: 10.65 x10E3/uL
LYMPHOCYTE [1]: 94.67%
MEAN CORPUSCULAR HEMOGLOBIN [1]: 24.37 pg
MEAN CORPUSCULAR HEMOGLOBIN CONCENTRATION [1]: 39.05 G/DL
MEAN CORPUSCULAR VOLUME [1]: 62.38 fL
MONOCYTE [1]: 0.67%
NEUTROPHIL [1]: 4.5%
NUCLEATED RED BLOOD CELLS [1]: 0.33 /100WBC
PLATELET COUNT [1]: 414.5 x10E3/uL
ALANINE AMINOTRANSFERASE [1]: 72 u/L
ALBUMIN [1]: 3.75 G/DL
ALKALINE PHOSPHATASE [1]: 375 u/L
ASPARTATE AMINOTRANSFERASE [1]: 87.5 u/L
BLOOD UREA NITROGEN [1]: 14 mg/dL
CARBON DIOXIDE [1]: 27.5 mmol/L
CHLORIDE [1]: 95.83 MEQ/L
CHOLESTEROL [1]: 68.5 mg/dL
CREATINE PHOSPHOKINASE [1]: 284.33 u/L
CREATININE [1]: 0.16 mg/dL
GLUCOSE [1]: 156.67 mg/dL
LACTATE DEHYDROGENASE [1]: 101.83 u/L
LIPASE [1]: 9.67 u/L
PHOSPHORUS [1]: 10.33 mg/dL
POTASSIUM [1]: 5.22 MEQ/L
SODIUM [1]: 137.67 MEQ/L
TOTAL BILIRUBIN [1]: 0.13 mg/dL
TOTAL PROTEIN [1]: 5.43 G/DL
URIC ACID [1]: 0.8 mg/dL
ABSOLUTE BASOPHIL [2]: 0 CELLS/uL
ABSOLUTE EOSINOPHIL [2]: 20.67 CELLS/uL
ABSOLUTE LYMPHOCYTE [2]: 11518.33 CELLS/uL
ABSOLUTE MONOCYTE [2]: 47 CELLS/uL
ABSOLUTE SEGMENTED NEUTROPHIL [2]: 614 CELLS/uL
BASOPHIL [2]: 0%
EOSINOPHIL [2]: 0.17%
ERYTHROCYTE COUNT [2]: 5.61 x10E6/uL
HEMATOCRIT [2]: 34.25%
HEMOGLOBIN [2]: 13.38 G/DL
LEUKOCYTE COUNT [2]: 12.2 x10E3/uL
LYMPHOCYTE [2]: 94.33%
MEAN CORPUSCULAR HEMOGLOBIN [2]: 23.83 pg
MEAN CORPUSCULAR HEMOGLOBIN CONCENTRATION [2]: 39.08 G/DL
MEAN CORPUSCULAR VOLUME [2]: 61.03 fL
MONOCYTE [2]: 0.33%
NEUTROPHIL [2]: 5.17%
NUCLEATED RED BLOOD CELLS [2]: 0 /100WBC
PLATELET COUNT [2]: 941.83 x10E3/uL
ALANINE AMINOTRANSFERASE [2]: 68.83 u/L
ALBUMIN [2]: 4.12 G/DL
ALKALINE PHOSPHATASE [2]: 492.67 u/L
ASPARTATE AMINOTRANSFERASE [2]: 83.33 u/L
BLOOD UREA NITROGEN [2]: 14 mg/dL
CARBON DIOXIDE [2]: 37 mmol/L
CHLORIDE [2]: 98.67 MEQ/L
CHOLESTEROL [2]: 56.5 mg/dL
CREATINE PHOSPHOKINASE [2]: 167.33 u/L
CREATININE [2]: 0.17 mg/dL
GLUCOSE [2]: 157.5 mg/dL
LACTATE DEHYDROGENASE [2]: 104.83 u/L
LIPASE [2]: 10 u/L
PHOSPHORUS [2]: 10.43 mg/dL
POTASSIUM [2]: 5.46 MEQ/L
SODIUM [2]: 143.87 MEQ/L
TOTAL BILIRUBIN [2]: 0.17 mg/dL
TOTAL PROTEIN [2]: 5.72 G/DL
URIC ACID [2]: 0.85 mg/dL
ABSOLUTE BASOPHIL [3]: 0 CELLS/uL
ABSOLUTE EOSINOPHIL [3]: 10.67 CELLS/uL
ABSOLUTE LYMPHOCYTE [3]: 6470.33 CELLS/uL
ABSOLUTE MONOCYTE [3]: 86 CELLS/uL
ABSOLUTE SEGMENTED NEUTROPHIL [3]: 599.67 CELLS/uL
BASOPHIL [3]: 0%
EOSINOPHIL [3]: 0.33%
ERYTHROCYTE COUNT [3]: 5.25 x10E6/uL
HEMATOCRIT [3]: 32.9%
HEMOGLOBIN [3]: 13.03 G/DL
LEUKOCYTE COUNT [3]: 7.17 x10E3/uL
LYMPHOCYTE [3]: 91.67%
MEAN CORPUSCULAR HEMOGLOBIN [3]: 24.87 pg
MEAN CORPUSCULAR HEMOGLOBIN CONCENTRATION [3]: 39.6 G/DL
MEAN CORPUSCULAR VOLUME [3]: 62.8 fL
MONOCYTE [3]: 1%
NEUTROPHIL [3]: 7%
NUCLEATED RED BLOOD CELLS [3]: 0 /100WBC
PLATELET COUNT [3]: 851.33 x10E3/uL
ALANINE AMINOTRANSFERASE [3]: 92 u/L
ALBUMIN [3]: 3.97 G/DL
ALKALINE PHOSPHATASE [3]: 441.67 u/L
ASPARTATE AMINOTRANSFERASE [3]: 111 u/L
BLOOD UREA NITROGEN [3]: 12.33 mg/dL
CARBON DIOXIDE [3]: 27.67 mmol/L
CHLORIDE [3]: 95.5 MEQ/L
CHOLESTEROL [3]: 77.67 mg/dL
CREATINE PHOSPHOKINASE [3]: 476.67 u/L
CREATININE [3]: 0.33 mg/dL
GLUCOSE [3]: 152 mg/dL
LACTATE DEHYDROGENASE [3]: 156.33 u/L
LIPASE [3]: 13.67 u/L
PHOSPHORUS [3]: 9.97 mg/dL
POTASSIUM [3]: 5.27 MEQ/L
SODIUM [3]: 138.85 MEQ/L
TOTAL BILIRUBIN [3]: 0.17 mg/dL
TOTAL PROTEIN [3]: 5.23 G/DL
URIC ACID [3]: 0.7 mg/dL
ABSOLUTE BASOPHIL [4]: 0 CELLS/uL
ABSOLUTE EOSINOPHIL [4]: 0 CELLS/uL
ABSOLUTE LYMPHOCYTE [4]: 8137.67 CELLS/uL
ABSOLUTE MONOCYTE [4]: 25 CELLS/uL
ABSOLUTE SEGMENTED NEUTROPHIL [4]: 504 CELLS/uL
BASOPHIL [4]: 0%
EOSINOPHIL [4]: 0%
ERYTHROCYTE COUNT [4]: 6.06 x10E6/uL
HEMATOCRIT [4]: 36.17%
HEMOGLOBIN [4]: 13.93 G/DL
LEUKOCYTE COUNT [4]: 8.67 x10E3/uL
LYMPHOCYTE [4]: 94%
MEAN CORPUSCULAR HEMOGLOBIN [4]: 23.03 pg
MEAN CORPUSCULAR HEMOGLOBIN CONCENTRATION [4]: 38.53 G/DL
MEAN CORPUSCULAR VOLUME [4]: 59.7 fL
MONOCYTE [4]: 0.33%
NEUTROPHIL [4]: 5.67%
NUCLEATED RED BLOOD CELLS [4]: 0 /100WBC
PLATELET COUNT [4]: 1066.67 x10E3/uL
ALANINE AMINOTRANSFERASE [4]: 57 u/L
ALBUMIN [4]: 4.03 G/DL
ALKALINE PHOSPHATASE [4]: 326.67 u/L
ASPARTATE AMINOTRANSFERASE [4]: 78 u/L
BLOOD UREA NITROGEN [4]: 13.33 mg/dL
CARBON DIOXIDE [4]: 35.67 mmol/L
CHLORIDE [4]: 99.33 MEQ/L
CHOLESTEROL [4]: 75 mg/dL
CREATINE PHOSPHOKINASE [4]: 234.33 u/L
CREATININE [4]: 0.18 mg/dL
GLUCOSE [4]: 140 mg/dL
LACTATE DEHYDROGENASE [4]: 135.33 u/L
LIPASE [4]: 9.67 u/L
PHOSPHORUS [4]: 10.43 mg/dL
POTASSIUM [4]: 5.86 MEQ/L
SODIUM [4]: 143.57 MEQ/L
TOTAL BILIRUBIN [4]: 0.23 mg/dL
TOTAL PROTEIN [4]: 5.83 G/DL
URIC ACID [4]: 0.67 mg/dL
